The values below come from paper PMC6784069 (Toxins, 2019).

Series [1] has as its system OD1-induced painful behavior of mice. The settings on record: mouse, in vivo; cited from earlier work.
The target in series [2] is T1, hNaV1.7 (Homo sapiens, UniProt Q15858). The settings on record: cited from earlier work.
In a further series the test system is Drosophila Para/TipE. The settings on record: cited from earlier work.
A further series has as its system NaV1.2. The settings on record: cited from earlier work.
In series [3] the test system is hNaV1.2, 1.5 and 1.7–1.8, hCaV1.2 and hKV11.1 currents. The settings on record: for Hill number nH, all concentration–response curves: SD.
The next series relates to NaV1.5. The settings on record: cited from earlier work.
A further series concerns the target hCaV1.2 (Homo sapiens, UniProt Q13936). As to the kind of experiment: cell-based. The settings on record: SD.
A further series has as its target hNaV1.2 (Homo sapiens, UniProt Q99250). As to the kind of experiment: cell-based. The settings on record: SD.
In series [4] the test system is CFA-induced heat hyperalgesia. The settings on record: mouse, in vivo; cited from earlier work.
A further series relates to acute heat responses. The settings on record: in vivo, ip; cited from earlier work.
Series [5] deals with paw formalin injection pain. The settings on record: mouse, in vivo; cited from earlier work.
The target of another series is hNaV1.8 (Homo sapiens, UniProt Q9Y5Y9). The series can be described thus: cell-based. The series is classed as cell-based.
Another series deals with hNaV1.3 (Homo sapiens, UniProt Q9NY46). As to the kind of experiment: cell-based. The settings on record: SD.
In another series the test system is NaV1.8. The settings on record: cited from earlier work.
The next series deals with NaV1.1. The settings on record: cited from earlier work.
Series [6] relates to OD1-induced painful behavior of mice. The settings on record: mouse, in vivo.
In another series the test system is NaV1.3. The settings on record: cited from earlier work.
The next series addresses hNaV1.6 (Homo sapiens, UniProt Q9UQD0). As to the kind of experiment: cell-based. The settings on record: SD.
A further series addresses hNaV1.5 (Homo sapiens, UniProt Q14524). As to the kind of experiment: cell-based. The settings on record: IC50 on hNaV1.5 current; SD.
Series [7] has as its target T1, hNaV1.7. As to the kind of experiment: cell-based. The series is classed as cell-based. The settings on record: for IC50: SD.
A further series has as its system NaV1.7. The settings on record: cited from earlier work.
Series [8] has as its target T2, hKV11.1 (Homo sapiens, UniProt Q12809).
For the next series, the target named is hNaV1.1 (Homo sapiens, UniProt P35498). As to the kind of experiment: cell-based. The settings on record: SD.
For series [9], the target named is T2, hKV11.1. The series can be described thus: in vitro. The settings on record: pH 7.4.
The test system of a further series is hNaV1.1–1.8. The class given is cell-based, human. The settings on record: read-out: IC90–95 (compound concentration necessary to inhibit 90–95% of current).

Where “and” joins values, the source holds several entries; their conditions need not be identical. Identical values can stand only once. Like-named read-outs stand apart in the source and are kept apart here. Residues, ends and D or L forms follow the SMILES beside them.

T2 sequence (Q12809 whole entry): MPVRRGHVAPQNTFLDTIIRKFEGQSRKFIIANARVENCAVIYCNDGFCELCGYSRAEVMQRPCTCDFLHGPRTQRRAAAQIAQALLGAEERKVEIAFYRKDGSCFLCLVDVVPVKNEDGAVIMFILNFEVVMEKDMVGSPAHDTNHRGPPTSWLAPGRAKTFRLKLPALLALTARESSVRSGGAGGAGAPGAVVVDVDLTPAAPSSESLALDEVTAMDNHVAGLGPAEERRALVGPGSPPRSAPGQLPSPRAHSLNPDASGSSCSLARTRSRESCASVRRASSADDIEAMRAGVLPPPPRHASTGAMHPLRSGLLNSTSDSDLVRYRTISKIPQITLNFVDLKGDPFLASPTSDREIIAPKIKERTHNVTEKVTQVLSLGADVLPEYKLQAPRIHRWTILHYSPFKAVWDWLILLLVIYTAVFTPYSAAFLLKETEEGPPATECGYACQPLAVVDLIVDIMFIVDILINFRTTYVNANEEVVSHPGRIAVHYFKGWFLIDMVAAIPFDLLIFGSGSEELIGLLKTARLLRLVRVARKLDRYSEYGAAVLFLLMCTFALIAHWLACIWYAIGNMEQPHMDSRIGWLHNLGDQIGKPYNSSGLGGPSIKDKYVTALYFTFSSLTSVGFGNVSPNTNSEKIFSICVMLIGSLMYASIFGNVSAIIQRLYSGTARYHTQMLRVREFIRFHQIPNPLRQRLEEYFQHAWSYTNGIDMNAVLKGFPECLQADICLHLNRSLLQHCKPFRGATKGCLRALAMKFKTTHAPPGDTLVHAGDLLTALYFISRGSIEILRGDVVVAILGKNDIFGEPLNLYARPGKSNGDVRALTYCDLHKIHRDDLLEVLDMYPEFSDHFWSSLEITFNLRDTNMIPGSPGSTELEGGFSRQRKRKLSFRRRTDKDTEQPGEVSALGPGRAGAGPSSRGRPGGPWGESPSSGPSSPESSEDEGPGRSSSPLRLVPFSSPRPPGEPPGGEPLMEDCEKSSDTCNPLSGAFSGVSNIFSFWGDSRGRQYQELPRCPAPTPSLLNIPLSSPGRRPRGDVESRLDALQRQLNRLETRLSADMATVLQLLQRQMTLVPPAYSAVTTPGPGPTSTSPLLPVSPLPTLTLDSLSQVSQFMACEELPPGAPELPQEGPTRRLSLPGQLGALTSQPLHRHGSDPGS
T1 sequence (Q15858 whole entry): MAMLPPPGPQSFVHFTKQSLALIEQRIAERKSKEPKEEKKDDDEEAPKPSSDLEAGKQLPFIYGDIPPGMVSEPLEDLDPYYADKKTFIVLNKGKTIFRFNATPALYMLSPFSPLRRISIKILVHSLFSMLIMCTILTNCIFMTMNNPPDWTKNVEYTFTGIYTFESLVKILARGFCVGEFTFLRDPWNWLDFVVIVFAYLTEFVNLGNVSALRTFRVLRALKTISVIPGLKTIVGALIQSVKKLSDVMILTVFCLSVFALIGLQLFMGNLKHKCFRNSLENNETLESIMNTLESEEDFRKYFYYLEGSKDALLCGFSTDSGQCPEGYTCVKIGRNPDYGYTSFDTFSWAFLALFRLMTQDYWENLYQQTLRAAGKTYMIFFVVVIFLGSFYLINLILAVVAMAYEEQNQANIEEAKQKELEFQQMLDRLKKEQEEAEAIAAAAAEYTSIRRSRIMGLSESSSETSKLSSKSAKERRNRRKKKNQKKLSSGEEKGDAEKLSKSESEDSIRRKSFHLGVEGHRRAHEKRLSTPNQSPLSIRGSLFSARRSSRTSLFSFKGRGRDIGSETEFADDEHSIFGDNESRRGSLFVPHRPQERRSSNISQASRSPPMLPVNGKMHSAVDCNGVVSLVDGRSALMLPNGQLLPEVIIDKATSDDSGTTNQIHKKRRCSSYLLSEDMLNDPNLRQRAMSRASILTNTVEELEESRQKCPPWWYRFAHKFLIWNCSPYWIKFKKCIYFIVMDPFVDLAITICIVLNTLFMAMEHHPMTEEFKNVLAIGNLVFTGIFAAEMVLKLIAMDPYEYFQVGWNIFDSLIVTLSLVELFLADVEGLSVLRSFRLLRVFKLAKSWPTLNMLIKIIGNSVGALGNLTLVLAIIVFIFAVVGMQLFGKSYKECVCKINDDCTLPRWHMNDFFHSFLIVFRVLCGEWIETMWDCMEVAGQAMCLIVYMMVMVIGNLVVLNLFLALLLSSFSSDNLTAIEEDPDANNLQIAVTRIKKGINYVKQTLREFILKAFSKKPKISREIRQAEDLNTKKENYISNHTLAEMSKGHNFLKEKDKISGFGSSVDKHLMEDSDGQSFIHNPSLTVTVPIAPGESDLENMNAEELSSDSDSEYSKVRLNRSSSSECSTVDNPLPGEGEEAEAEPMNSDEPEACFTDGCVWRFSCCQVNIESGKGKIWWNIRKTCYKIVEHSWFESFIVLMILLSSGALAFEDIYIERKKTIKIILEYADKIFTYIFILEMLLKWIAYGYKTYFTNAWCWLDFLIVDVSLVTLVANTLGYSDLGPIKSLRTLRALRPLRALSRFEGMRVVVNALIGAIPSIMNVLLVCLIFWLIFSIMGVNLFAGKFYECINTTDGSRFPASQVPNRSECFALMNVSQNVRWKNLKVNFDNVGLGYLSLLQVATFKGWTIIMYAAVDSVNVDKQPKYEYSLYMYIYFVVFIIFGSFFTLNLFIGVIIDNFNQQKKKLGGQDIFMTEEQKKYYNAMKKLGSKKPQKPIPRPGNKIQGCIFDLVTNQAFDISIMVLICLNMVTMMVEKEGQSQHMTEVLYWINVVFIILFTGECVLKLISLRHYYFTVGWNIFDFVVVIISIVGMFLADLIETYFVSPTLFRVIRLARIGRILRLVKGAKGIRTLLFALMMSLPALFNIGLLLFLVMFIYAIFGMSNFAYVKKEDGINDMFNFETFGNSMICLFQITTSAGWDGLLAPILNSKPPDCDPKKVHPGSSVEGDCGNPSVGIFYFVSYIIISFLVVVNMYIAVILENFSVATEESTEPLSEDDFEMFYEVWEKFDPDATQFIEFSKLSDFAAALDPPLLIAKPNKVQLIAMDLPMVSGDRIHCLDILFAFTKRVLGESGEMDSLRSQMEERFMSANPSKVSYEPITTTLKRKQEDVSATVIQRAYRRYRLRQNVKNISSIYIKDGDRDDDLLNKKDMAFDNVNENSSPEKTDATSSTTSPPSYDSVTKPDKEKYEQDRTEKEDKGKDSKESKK
hNaV1.2, sequence (Q99250 whole entry): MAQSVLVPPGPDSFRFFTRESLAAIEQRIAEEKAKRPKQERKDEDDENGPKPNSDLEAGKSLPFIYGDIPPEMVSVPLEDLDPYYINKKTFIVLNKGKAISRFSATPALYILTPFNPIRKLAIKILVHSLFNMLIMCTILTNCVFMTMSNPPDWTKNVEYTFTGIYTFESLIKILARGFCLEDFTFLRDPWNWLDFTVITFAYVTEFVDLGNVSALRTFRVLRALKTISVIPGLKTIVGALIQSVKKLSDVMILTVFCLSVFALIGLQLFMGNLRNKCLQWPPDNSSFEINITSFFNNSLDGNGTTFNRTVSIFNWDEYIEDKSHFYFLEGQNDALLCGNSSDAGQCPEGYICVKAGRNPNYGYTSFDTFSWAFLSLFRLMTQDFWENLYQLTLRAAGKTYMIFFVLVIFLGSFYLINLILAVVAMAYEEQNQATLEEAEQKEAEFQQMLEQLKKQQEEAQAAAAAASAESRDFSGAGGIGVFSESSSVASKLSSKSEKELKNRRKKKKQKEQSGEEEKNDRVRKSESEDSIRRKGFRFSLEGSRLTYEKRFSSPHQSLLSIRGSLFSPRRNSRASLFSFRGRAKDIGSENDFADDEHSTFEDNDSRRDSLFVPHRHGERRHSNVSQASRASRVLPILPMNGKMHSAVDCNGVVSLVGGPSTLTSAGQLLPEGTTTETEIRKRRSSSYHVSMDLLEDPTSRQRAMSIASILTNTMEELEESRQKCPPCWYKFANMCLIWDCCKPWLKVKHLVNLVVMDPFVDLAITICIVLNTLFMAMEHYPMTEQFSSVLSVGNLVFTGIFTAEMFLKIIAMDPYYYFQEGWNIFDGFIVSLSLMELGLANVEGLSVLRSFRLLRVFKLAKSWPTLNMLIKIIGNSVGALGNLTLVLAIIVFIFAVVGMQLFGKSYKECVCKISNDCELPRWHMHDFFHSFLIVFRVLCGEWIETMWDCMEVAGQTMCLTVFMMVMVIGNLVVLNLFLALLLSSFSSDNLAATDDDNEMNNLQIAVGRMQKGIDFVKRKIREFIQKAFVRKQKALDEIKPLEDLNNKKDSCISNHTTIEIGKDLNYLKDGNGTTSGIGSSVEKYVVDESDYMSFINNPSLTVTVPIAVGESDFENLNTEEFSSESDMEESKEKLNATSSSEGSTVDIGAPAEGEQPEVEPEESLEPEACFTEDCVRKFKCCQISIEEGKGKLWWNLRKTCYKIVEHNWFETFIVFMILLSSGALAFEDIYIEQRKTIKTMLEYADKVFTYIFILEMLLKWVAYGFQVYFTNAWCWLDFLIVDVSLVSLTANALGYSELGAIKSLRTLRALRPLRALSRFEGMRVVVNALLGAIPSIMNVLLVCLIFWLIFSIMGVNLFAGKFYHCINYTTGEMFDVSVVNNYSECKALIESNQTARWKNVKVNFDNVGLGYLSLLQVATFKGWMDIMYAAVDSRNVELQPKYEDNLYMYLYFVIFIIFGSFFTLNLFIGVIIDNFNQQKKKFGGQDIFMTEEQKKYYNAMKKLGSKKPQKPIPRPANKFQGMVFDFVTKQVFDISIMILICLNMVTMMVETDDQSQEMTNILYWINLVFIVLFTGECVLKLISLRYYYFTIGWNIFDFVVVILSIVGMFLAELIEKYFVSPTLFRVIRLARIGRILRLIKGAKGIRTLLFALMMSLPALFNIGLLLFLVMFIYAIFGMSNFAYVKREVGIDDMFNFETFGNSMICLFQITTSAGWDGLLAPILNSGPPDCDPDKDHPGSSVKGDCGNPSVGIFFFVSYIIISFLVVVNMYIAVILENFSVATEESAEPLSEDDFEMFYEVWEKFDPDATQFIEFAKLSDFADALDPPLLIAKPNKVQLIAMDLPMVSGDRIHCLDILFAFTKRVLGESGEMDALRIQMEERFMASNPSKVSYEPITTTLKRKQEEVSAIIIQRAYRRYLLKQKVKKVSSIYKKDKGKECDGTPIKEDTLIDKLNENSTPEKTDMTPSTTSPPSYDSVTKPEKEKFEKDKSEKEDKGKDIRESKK

As usually defined, the IC50 is the point on the concentration scale where inhibition reaches its midpoint. In the case of “CcoTx2: spider toxin, NaV ligand (CLGWFKSCDPKNDKCCKNYTCSRRDRWCKYYL)”, the “concentration efficient to diminish or completely reverse the OD1-induced manifestations of pain” value (from here on “concentration efficient”) in series [1] is given as 1 µM. Also, the IC50 in the series with hNaV1.7 [2] is 95 nM.
With `CC(C)C[C@@H]1NC(=O)[C@@H](NC(=O)[C@H](C)N)CSSC[C@@H]2NC(=O)[C@@H]3CSSC[C@@H](C(=O)N[C@@H](CCCNC(=N)N)C(=O)N[C@@H](Cc4ccc(O)cc4)C(=O)N[C@@H](CCCCN)C(=O)N[C@@H](CC(C)C)C(=O)N[C@@H](Cc4ccccc4)C(=O)O)NC(=O)[C@H](Cc4c[nH]c5ccccc45)NC(=O)[C@@H]4CCCN4C(=O)[C@H](Cc4ccc(O)cc4)NC(=O)[C@H](CCCCN)NC(=O)[C@H](Cc4c[nH]c5ccccc45)NC(=O)[C@H](CCC(=O)O)NC(=O)[C@H](CSSC[C@H](NC(=O)[C@H](CO)NC(=O)[C@H](CC(=O)O)NC(=O)[C@H](Cc4c[nH]c5ccccc45)NC(=O)[C@H](CCC(N)=O)NC(=O)CNC1=O)C(=O)N[C@@H](CC(=O)O)C(=O)N1CCC[C@H]1C(=O)N[C@@H](CCCCN)C(=O)N[C@@H](C)C(=O)N[C@@H](CO)C(=O)N[C@@H](CCCCN)C(=O)N3)NC(=O)[C@H](C)NC(=O)[C@H](Cc1ccc(O)cc1)NC(=O)[C@H](CC(N)=O)NC(=O)[C@@H]1CCCN1C2=O` [PhlTx1] (HELM PEPTIDE1{A.C.L.G.Q.W.D.S.C.D.P.K.A.S.K.C.C.P.N.Y.A.C.E.W.K.Y.P.W.C.R.Y.K.L.F}$PEPTIDE1,PEPTIDE1,2:R3-17:R3|PEPTIDE1,PEPTIDE1,9:R3-22:R3|PEPTIDE1,PEPTIDE1,16:R3-29:R3$$$V2.0), the “inhibition of Drosophila Para/TipE current” value with Drosophila Para/TipE is “less than 10%”. For the same compound, in the series on NaV1.2, the “inhibition of NaV1.2 current” value is “less than 10%”. Moreover, the “Hill number nH, all concentration–response curves” value in series [3] is given as 1.05 ± 0.15. In the series with NaV1.5, the “inhibition of NaV1.5 current” value is recorded as “less than 10%”. Further, the IC50 is 5900 ± 2100 nM against hCaV1.2; 73.7 ± 46.3 nM on hNaV1.2; 279 ± 6.1 nM at hNaV1.2 (read-out: IC50 on hNaV1.2 current); greater than 10000 nM at hNaV1.8; 202 ± 110 nM against hNaV1.3; 491 ± 109 nM at hNaV1.6. In addition, the IC50 is 711 nM and 396 nM at hNaV1.5; 309 ± 17 nM on hNaV1.7 [7] (IC50 on hNaV1.7 current); 254 nM against hNaV1.7 [7] (hNaV1.7 IC50); 260 nM in the series on NaV1.7 (read-out: mean IC50 for interaction with the NaV1.7 subtype); 280 ± 118 nM against hNaV1.1. Also, the “analgesia in CFA-induced heat hyperalgesia” value in series [4] is listed as “ineffective”. The “effect on mouse acute heat responses” value with acute heat responses is “ineffective”. Further, in series [5], the “effects in acute and inflammatory neuropathic (paw formalin injection) pain” value was “Anti-allodynic and analgesic effects”. For the same compound, the “effect on the hNaV1.8 current” value at hNaV1.8 is given as “unaffected”. Besides, the “inhibition of NaV1.8 current” value in the series with NaV1.8 was “less than 10%”. Further, in the series on NaV1.1, the “inhibition of NaV1.1 current” value was “less than 10%”. For the same compound, the “cardiac or neuromuscular side-effects” value in series [6] is on record as “no sign of cardiac or neuromuscular side-effects”. In addition, in the series on NaV1.3, the “inhibition of NaV1.3 current” value is recorded as “less than 10%”. At hNaV1.7 [7], the “pharmacological activity on the hNaV1.7 current” value is recorded as “strongly inhibit”. Besides, the “selectivity towards the TTX-R (except hNaV1.8) and other TTX-S (except hNaV1.4) hNaV subtypes” value on hNaV1.7 [7] was “less than 10 fold”. In addition, the “inhibition of NaV1.7 current” value with NaV1.7 is “greater than 90%”. The “effect on the hKV11.1 current” value at hKV11.1 [8] is given as “no effect”.
Regarding “CcoTx1: spider toxin, NaV ligand (CLGWFKSCDPKNDKCCKNYTCSRRDRWCKYDL)”, the “concentration efficient” value in [1] is listed as 1 µM. Besides, in the series with hNaV1.7 [2], the concentration for half-maximal inhibition (IC50) is 2 to 130 nM.
In turn, `CC[C@H](C)[C@H](NC(=O)[C@H](CC(=O)O)NC(=O)[C@@H](NC(=O)[C@@H]1CCCN1C(=O)[C@@H](N)CCCNC(=N)N)[C@@H](C)O)C(=O)N[C@@H](CCCCN)C(=O)N[C@H]1CSSC[C@@H]2NC(=O)[C@H](CCCNC(=N)N)NC(=O)CNC(=O)[C@H](CC(N)=O)NC(=O)[C@H]([C@@H](C)O)NC(=O)[C@H](CCCCN)NC(=O)CNC(=O)[C@H](Cc3ccccc3)NC(=O)[C@H](CCCNC(=N)N)NC(=O)[C@H](CO)NC(=O)[C@H](CCCCN)NC(=O)[C@@H]3CSSC[C@@H](C(=O)N[C@@H](Cc4ccccc4)C(=O)O)NC(=O)[C@H](CC(=O)O)NC(=O)[C@H](CSSC[C@H](NC(=O)[C@H](CCC(N)=O)NC(=O)[C@H](Cc4ccc(O)cc4)NC(=O)[C@H](CO)NC(=O)[C@H](CCC(=O)O)NC(=O)[C@H](CO)NC1=O)C(=O)N[C@@H](Cc1ccccc1)C(=O)N1CCC[C@H]1C(=O)N[C@@H](C(C)C)C(=O)N3)NC(=O)[C@H](Cc1ccccc1)NC(=O)CNC(=O)[C@H](CC(N)=O)NC(=O)[C@H](C(C)C)NC2=O` [BeKm-1] (HELM PEPTIDE1{R.P.T.D.I.K.C.S.E.S.Y.Q.C.F.P.V.C.K.S.R.F.G.K.T.N.G.R.C.V.N.G.F.C.D.C.F}$PEPTIDE1,PEPTIDE1,7:R3-28:R3|PEPTIDE1,PEPTIDE1,13:R3-33:R3|PEPTIDE1,PEPTIDE1,17:R3-35:R3$$$V2.0) registered an IC90 against hKV11.1 [9] of 1000 nM.
In the case of `NC1=N[C@H](O)[C@H]2[C@H]3O[C@]4(O)O[C@@H]([C@@H](O)[C@@]2(N1)[C@@H]4O)[C@]3(O)CO` [Tetrodotoxin (citrate), Tetrodotoxin], the IC90 in the series on hNaV1.1–1.8 was determined as 1000 nM.
As for `CC(C)C[C@@H]1NC(=O)[C@@H](NC(=O)[C@H](C)N)CSSC[C@@H]2NC(=O)[C@@H]3CSSC[C@@H](C(=O)N[C@@H](CCCNC(=N)N)C(=O)N[C@@H](Cc4ccc(O)cc4)C(=O)N[C@@H](CCCCN)C(=O)N[C@@H](CC(C)C)C(=O)N[C@@H](Cc4ccccc4)C(=O)O)NC(=O)[C@H](Cc4c[nH]c5ccccc45)NC(=O)[C@@H]4CCCN4C(=O)[C@H](Cc4ccc(O)cc4)NC(=O)[C@H](CCCCN)NC(=O)[C@H](Cc4c[nH]c5ccccc45)NC(=O)[C@H](CCC(=O)O)NC(=O)[C@H](CSSC[C@H](NC(=O)[C@H](CO)NC(=O)[C@H](C)NC(=O)[C@H](Cc4c[nH]c5ccccc45)NC(=O)[C@H](CCC(N)=O)NC(=O)CNC1=O)C(=O)N[C@@H](CC(=O)O)C(=O)N1CCC[C@H]1C(=O)N[C@@H](CCCCN)C(=O)N[C@@H](C)C(=O)N[C@@H](CO)C(=O)N[C@@H](CCCCN)C(=O)N3)NC(=O)[C@H](C)NC(=O)[C@H](Cc1ccc(O)cc1)NC(=O)[C@H](CC(N)=O)NC(=O)[C@@H]1CCCN1C2=O` [D7A] (HELM PEPTIDE1{A.C.L.G.Q.W.A.S.C.D.P.K.A.S.K.C.C.P.N.Y.A.C.E.W.K.Y.P.W.C.R.Y.K.L.F}$PEPTIDE1,PEPTIDE1,2:R3-17:R3|PEPTIDE1,PEPTIDE1,9:R3-22:R3|PEPTIDE1,PEPTIDE1,16:R3-29:R3$$$V2.0), the “gain of affinity versus PhlTx1” value in [3] is recorded as 2.5-7.4 fold. Besides, the “Hill number nH, all concentration–response curves” value in [3] is 1.06 ± 0.13. For the same compound, the IC50 was determined as 800 ± 253 nM at hCaV1.2; 47.3 ± 5.2 nM on hNaV1.2; 4000 ± 500 nM against hNaV1.8 (SD); 93.3 ± 32.9 nM at hNaV1.5; 73 ± 23.7 nM against hNaV1.7 [7] (IC50 on hNaV1.7 current); 47 nM at hNaV1.7 [7] (hNaV1.7 IC50). Moreover, on hKV11.1 [8], the “activity on the KV11.1 subtype” value is “inactive”.
As for “Cd1a: spider toxin, NaV ligand (CLGWFKSCDPKNDKCCKNYSCSRRDRWCKYDL)”, the “concentration efficient” value in series [1] is 1 µM. The IC50 with hNaV1.7 [2] was 16 nM.
